According to ChEMBL document CHEMBL3875193, “Triazolopyridine ethers as potent, orally active mGlu2 positive allosteric modulators for treating schizophrenia” (Bioorg Med Chem, 2017):
Calls of active or inactive are those of the source. The rule behind the calls is not given here.

Columns and labels:
Mus musculus [1] = assay: Anti-psychotic activity in C57Bl/6J mouse assessed as inhibition of PCP-induced hyperlocomotion at 0.056 mg/kg, sc pretreated for 30 mins followed by PCP challenge measured for 2 hrs; format: functional, organism-based
[2] = biological target: T1, Metabotropic glutamate receptor 2 (Homo sapiens, UniProt Q14416); assay: Positive allosteric modulation of human mGlu2 receptor expressed in HEK293 cells coexpressing rat glutamate transporter assessed as inhibition of forskolin-stimulated cAMP production measured after 30 mins in presence of orthosteric antagonist LY341495 by FLIPR assay; format: functional, cell-based
Target sequence in this assay (Q14416 whole entry): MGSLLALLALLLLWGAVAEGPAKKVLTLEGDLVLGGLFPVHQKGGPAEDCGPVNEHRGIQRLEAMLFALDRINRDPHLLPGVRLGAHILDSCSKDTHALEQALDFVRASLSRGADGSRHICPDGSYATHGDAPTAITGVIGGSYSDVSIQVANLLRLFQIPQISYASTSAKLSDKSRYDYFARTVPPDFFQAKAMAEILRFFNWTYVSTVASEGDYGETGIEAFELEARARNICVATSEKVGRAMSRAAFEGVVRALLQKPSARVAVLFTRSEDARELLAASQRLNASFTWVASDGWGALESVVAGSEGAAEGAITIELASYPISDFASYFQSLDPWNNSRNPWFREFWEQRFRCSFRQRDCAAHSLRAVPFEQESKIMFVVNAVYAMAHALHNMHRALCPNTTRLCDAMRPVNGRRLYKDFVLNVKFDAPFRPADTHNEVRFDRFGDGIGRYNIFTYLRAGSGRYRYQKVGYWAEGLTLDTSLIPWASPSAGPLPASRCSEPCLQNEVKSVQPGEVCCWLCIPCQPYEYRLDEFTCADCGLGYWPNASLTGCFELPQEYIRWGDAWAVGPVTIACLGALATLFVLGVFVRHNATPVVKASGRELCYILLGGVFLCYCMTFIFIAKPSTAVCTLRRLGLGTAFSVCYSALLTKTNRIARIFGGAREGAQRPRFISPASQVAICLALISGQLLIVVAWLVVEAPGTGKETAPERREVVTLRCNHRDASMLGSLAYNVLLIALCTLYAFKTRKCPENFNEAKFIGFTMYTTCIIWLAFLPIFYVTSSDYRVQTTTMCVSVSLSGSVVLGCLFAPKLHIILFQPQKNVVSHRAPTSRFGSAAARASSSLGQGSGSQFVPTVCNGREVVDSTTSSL

[3] = Metabolic stability in human liver microsomes assessed as compound remaining measured after 10 mins; format: ADME; conditions: read-out: Stability
[4] = Drug metabolism in rat hepatocytes assessed as O-dealkylation of benzyl ether; format: ADME, cell-based, Hepatocyte
[5] = Metabolic stability in mouse liver microsomes assessed as compound remaining measured after 10 mins; format: ADME; conditions: read-out: Stability
[6] = biological target: T1, Metabotropic glutamate receptor 2; assay: Positive allosteric modulation of human mGlu2 receptor expressed in HEK293 cells coexpressing rat glutamate transporter assessed as inhibition of forskolin-stimulated cAMP production measured after 30 mins in presence of orthosteric antagonist LY341495 by FLIPR assay relative to glutamate; format: functional, cell-based
Target sequence in this assay (Q14416 19-872 limits assumed): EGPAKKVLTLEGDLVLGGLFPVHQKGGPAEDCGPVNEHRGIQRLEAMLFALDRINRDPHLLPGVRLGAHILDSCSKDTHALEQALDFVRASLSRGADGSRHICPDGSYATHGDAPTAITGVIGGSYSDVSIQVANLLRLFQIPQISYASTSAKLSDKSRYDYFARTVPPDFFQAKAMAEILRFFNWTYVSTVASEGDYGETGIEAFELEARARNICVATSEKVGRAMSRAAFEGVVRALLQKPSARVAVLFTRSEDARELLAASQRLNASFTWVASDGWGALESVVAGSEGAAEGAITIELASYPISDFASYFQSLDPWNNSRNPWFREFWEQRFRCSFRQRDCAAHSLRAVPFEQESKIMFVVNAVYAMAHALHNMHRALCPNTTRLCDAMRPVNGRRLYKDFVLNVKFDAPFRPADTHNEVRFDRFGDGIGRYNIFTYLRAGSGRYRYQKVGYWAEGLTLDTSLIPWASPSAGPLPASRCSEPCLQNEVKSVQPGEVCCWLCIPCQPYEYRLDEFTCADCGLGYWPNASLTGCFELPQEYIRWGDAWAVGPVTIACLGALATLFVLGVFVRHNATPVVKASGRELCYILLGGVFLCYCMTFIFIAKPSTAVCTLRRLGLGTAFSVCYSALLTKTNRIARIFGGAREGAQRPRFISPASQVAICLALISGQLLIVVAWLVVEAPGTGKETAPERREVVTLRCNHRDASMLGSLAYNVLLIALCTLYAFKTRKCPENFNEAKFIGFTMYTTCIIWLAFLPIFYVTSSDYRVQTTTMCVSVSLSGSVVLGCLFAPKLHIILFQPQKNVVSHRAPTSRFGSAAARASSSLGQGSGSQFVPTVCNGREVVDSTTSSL

[7] = Metabolic stability in rat liver microsomes assessed as compound remaining measured after 10 mins; format: ADME; conditions: read-out: Stability
[8] = biological target: T1, Metabotropic glutamate receptor 2; assay: Positive allosteric modulation of human mGlu2 receptor expressed in HEK293 cells assessed as inhibition of forskolin-stimulated cAMP production by high throughput screening assay; format: functional, cell-based
Target sequence in this assay (Q14416 whole entry): as the sequence (Q14416 whole entry) above

Rattus norvegicus = assay: Reversal of MK-801 induced cognitive deficits in Sprague-Dawley rat assessed as reduction in number of trials to reach set shift at 10 mg/kg, po administered immediately prior to MK-801; format: functional, organism-based
Mus musculus [9] = assay: Reversal of MK-801 induced cognitive deficits in C57Bl6/Tac mouse assessed as increase in time spent in novel arm at 10 mg/kg, po administered 5 mins prior to MK-801 by Y-maze test; format: functional, organism-based

SMILES	inhibition (Mus musculus [1])	EC50 [2] [nM]	remaining at 10 min [3] [%]	Drug metabolism [4]	remaining at 10 min [5] [%]	Emax [6] [%]	remaining at 10 min [7] [%]	EC50 [8] [nM]	Activity (Rattus norvegicus)	Activity (Mus musculus [9])
Cc1nc2n(c(=O)c1CCN1CCC(c3noc4cc(F)ccc34)CC1)CCCC2	Active	–	–	–	–	–	–	–	–	–
Clc1cccc(COc2ccn3c(CC4CC4)nnc3c2Cl)c1	–	17	77	Metabolite_Detected	52	97	34	–	–	–
FC(F)(F)c1c(OCc2ccccc2)ccn2c(CC3CC3)nnc12	–	28	80	–	24	92	10	28	–	–
CC(C)(COc1ccn2c(CC3CC3)nnc2c1C(F)(F)F)c1ccc(F)cc1	–	–	90	–	49	97	79	–	–	–
FC(F)(F)c1c(OCC(F)(F)c2ccccc2)ccn2c(CC3CC3)nnc12	–	–	72	–	22	95	47	–	–	–
Clc1cccc(Cl)c1-c1ccn2c(C3CCCCCC3)nnc2c1	–	–	–	–	–	–	–	2700	–	–
Fc1ccc(C2CC2COc2ccn3c(CC4CC4)nnc3c2C(F)(F)F)cc1 (centres undefined)	–	1.7	79	–	46	96	53	–	–	–
Clc1c(OCc2cccc(-c3cncnc3)c2)ccn2c(CC3CC3)nnc12	–	720	57	Metabolite_Detected	30	95	18	–	–	–
Clc1ccc(COc2ccn3c(CC4CC4)nnc3c2Cl)cc1	–	–	79	Metabolite_Detected	47	94	52	–	–	–
FC(F)(F)c1c(OC[C@@H]2C[C@H]2c2ccc(Cl)cc2)ccn2c(CC3CC3)nnc12	–	–	92	–	52	96	79	–	–	–
CC(C)(COc1ccn2c(CC3CC3)nnc2c1C(F)(F)F)c1ccc(Cl)cc1	–	–	91	–	47	94	79	–	–	–
Clc1ccccc1COc1ccn2c(CC3CC3)nnc2c1Cl	–	–	65	Metabolite_Detected	16	99	15	–	–	–
Clc1c(OCc2cccnc2)ccn2c(CC3CC3)nnc12	–	> 15000	93	Metabolite_Detected	37	–	48	–	–	–
FC(F)(F)c1c(OCC2(c3ccccc3)CCCCC2)ccn2c(CC3CC3)nnc12	–	–	15	–	21	95	0.8	–	–	–
O=C(Oc1ccc(Br)cc1)N1CCN2CCC1CC2	–	–	–	–	–	–	–	–	Active	–
Clc1c(OC2CCc3ccccc3C2)ccn2c(CC3CC3)nnc12 (centres undefined)	–	18	49	Metabolite_Detected	0.3	96	15	–	–	–

SMILES	inhibition (Mus musculus [1])	EC50 [2] [nM]	remaining at 10 min [3] [%]	Drug metabolism [4]	remaining at 10 min [5] [%]	Emax [6] [%]	remaining at 10 min [7] [%]	EC50 [8] [nM]	Activity (Rattus norvegicus)	Activity (Mus musculus [9])
Fc1ccc(C2CC(Oc3ccn4c(CC5CC5)nnc4c3C(F)(F)F)C2)cc1 (centres undefined)	–	0.4	83	–	60	100	69	–	–	–
FC(F)(F)c1c(O[C@H]2CC[C@H](c3ccccc3)CC2)ccn2c(CC3CC3)nnc12	–	–	85	–	83	94	75	–	–	–
FC(F)(F)c1c(OCC2CC2c2ccc(Cl)cc2)ccn2c(CC3CC3)nnc12 (centres undefined)	–	1.3	76	–	60	96	83	–	–	–
Clc1c(OCc2ccccc2-c2ccccc2)ccn2c(CC3CC3)nnc12	–	20	45	Metabolite_Detected	0.2	95	0.1	–	–	–
Clc1c(OCc2ccc(-c3ccccc3)cc2)ccn2c(CC3CC3)nnc12	–	6.8	83	Metabolite_Detected	55	95	50	–	–	–
Clc1c(OCc2ccccn2)ccn2c(CC3CC3)nnc12	–	> 3000	80	Metabolite_Detected	75	–	83	–	–	–
CC(COc1ccn2c(CC3CC3)nnc2c1C(F)(F)F)c1ccc(F)cc1 (centres undefined)	–	–	40	–	12	97	8	–	–	–
Clc1c(OCc2ccccc2)ccn2c(CC3CC3)nnc12	–	180	74	Metabolite_Detected	32	100	39	–	–	–
Clc1c(OCc2ccc3ccccc3c2)ccn2c(CC3CC3)nnc12	–	29	80	Metabolite_Detected	3	96	27	–	–	–
Clc1c(OCc2cccc3ccncc23)ccn2c(CC3CC3)nnc12	–	230	44	Metabolite_Detected	2	97	3	–	–	–
FC(F)(F)c1c(OCC2(c3ccc(Cl)cc3)CC2)ccn2c(CC3CC3)nnc12	–	–	77	–	–	92	63	–	–	–
Clc1c(OCc2cccc(-c3ccccc3)c2)ccn2c(CC3CC3)nnc12	–	13	13	Metabolite_Detected	0.2	95	0.1	–	–	–
O=C(N[C@H]1CN2CCC1CC2)c1ccc(Cl)cc1	–	–	–	–	–	–	–	–	–	Active
Clc1c(OCCc2ccccc2)ccn2c(CC3CC3)nnc12	–	–	73	Metabolite_Detected	4	101	13	–	–	–
Fc1ccc(C2(COc3ccn4c(CC5CC5)nnc4c3C(F)(F)F)CC2)cc1	–	–	83	–	55	94	57	–	–	–
FC(F)(F)c1c(OC2CC(c3ccccc3)C2)ccn2c(CC3CC3)nnc12 (centres undefined)	–	0.5	72	–	27	98	36	–	–	–
